Here are results for 54 compounds from ChEMBL document CHEMBL1201862, “PubChem BioAssay data set” (2004).

Molecules are shown by their SMILES.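 Test compounds were applied to cells in 96-well plates for 48 hours at 5 doses. GI50 is the concentration that inhibits growth by half.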 Active and inactive are the calls of the source. Cut-off read from the data, not from the text of the source: active = GI50 up to about 1.1 µM and inactive = higher.

Assay in all cases: inhibition of tumour cell growth, NCI panel, 48 h
Experiment [1] relates to M19-MEL.
Experiment [2] concerns DLD-1.
In experiment [3] the test system is Hs-578T.
For experiment [4], the system named is LXFL 529.
Experiment [5] deals with DMS-114.
Experiment [6] deals with DMS-273.
In experiment [7] the test system is BT-549.
Experiment [8] has as its system XF498.

Consider `CN1CCN(CCCN2c3ccccc3Sc3ccc(C(F)(F)F)cc32)CC1`, for which the GI50 in experiment [1] is 1.87 µM (inactive); in experiment [2], 13.8 µM (inactive); in experiment [3] it was 4.35 µM (inactive); in experiment [4], 10.2 µM (inactive); in experiment [5] it was 10 µM (inactive); in experiment [6], 6.65 µM (inactive). The GI50 in experiment [7] was 14.5 µM (inactive).

In the case of `CN(C)Cc1nsc(N(C)C)n1`, the GI50 in experiment [3] and in experiment [7] was > 100 µM (inactive) throughout.

Regarding `CO[C@@H]1C[C@H]2[C@@H]3CC[C@H]([C@H](C)COC(C)=O)[C@@]3(C)CC[C@@H]2[C@@]2(C)CC[C@H]3C[C@]312`, the GI50 in experiment [3] is > 100 µM (inactive).

With `Oc1ccc(-c2nn3c(CCCCCCCCc4nnc5sc(-c6ccc(O)cc6)nn45)nnc3s2)cc1`, the GI50 in experiment [3] and in experiment [7] was > 100 µM (inactive) in each case.

On to `CCCCc1ccc(Nc2nc3c(ncn3COCCBr)c(=O)[nH]2)cc1`, for which the GI50 in experiment [3] and in experiment [7] was > 100 µM (inactive) each time.

With `COc1cc2oc(=O)cc(C)c2cc1OC`, the GI50 in experiment [3] was > 100 µM (inactive).

As for `NS(=O)(=O)c1ccc(/N=N/c2ncccc2O)cc1`, the GI50 in experiment [3] and in experiment [7] was > 100 µM (inactive) each time.

Regarding `CCOC(=O)c1ccc(NC(NC(=O)CC)(C(F)(F)F)C(F)(F)F)cc1`, the GI50 in experiment [3] and in experiment [7] was > 100 µM (inactive) in each case.

In the case of `O=S(=O)(c1ccccc1)n1c2cc3cccnc3nc2c2cccnc21`, the GI50 in experiment [3] and in experiment [7] was > 100 µM (inactive) throughout.

With `C=C(C)C(O)C(O)c1c(OC)ccc2ccc(=O)oc12` (stereo not drawn), the GI50 in experiment [3] and in experiment [7] was > 100 µM (inactive) throughout.

Consider `C=C(C)C1CCC2=CC(CC3(C)OC3C3=CC(C(=O)OC)=C(C1)O3)OC2=O` (stereo not drawn), for which the GI50 in experiment [7] is > 100 µM (inactive).

For `CC(=O)NNc1nc(C)c(C(/C=C/c2ccc(Cl)cc2)=N/NC(=O)C[N+](C)(C)C)s1`, the GI50 in experiment [1], in experiment [2], in experiment [4], in experiment [5] and in experiment [6] was > 100 µM (inactive) in each case.

On to `COc1ccc2c(c1)SC1=Nc3sc4cc(OC)ccc4[n+]3CN12`, for which the GI50 in experiment [3] is 44.8 µM (inactive); in experiment [7], 66.8 µM (inactive).

Turning to `CC1C(=O)C(C)C(c2ccccc2)N(N=O)C1c1ccccc1` (stereo not drawn), the GI50 was > 100 µM (inactive) in experiment [1]; > 100 µM (inactive) in experiment [2]; 46.7 µM (inactive) in experiment [3]; > 1000 µM (inactive) in experiment [4]; > 798 µM (inactive) in experiment [6]; 19.4 µM (inactive) in experiment [8]. Also, the GI50 in experiment [7] is > 100 µM (inactive).

Regarding `Cc1nc(O)c(Cc2ccccc2O)c(-c2ccccc2)n1`, the GI50 in experiment [3] and in experiment [7] was > 100 µM (inactive) in each case.

With `CC(=O)N(CN1C(=O)CCC1C(=O)O)c1ccccc1` (stereo not drawn), the GI50 was > 53.3 µM (inactive) in experiment [3] and > 100 µM (inactive) in experiment [7].

In the case of `CCC1OC2C(CC=C(C)C)=C3OC(C)(O)C(C)(CC)C(=O)C3=C3OC(=O)C=C1C32` (stereo not drawn), the GI50 in experiment [7] is 15.1 µM (inactive).

With `Cn1nnc2c(C(N)=O)ncn2c1=O` [TEMOZOLOMIDE], the GI50 in experiment [1], in experiment [2], in experiment [3], in experiment [4], in experiment [5] and in experiment [8] was > 100 µM (inactive) in each case. Besides, the GI50 in experiment [7] is > 100 µM (inactive).

Consider `NCc1c(C(N)=O)ncn1Cc1ccccc1`, for which the GI50 in experiment [1], in experiment [4], in experiment [5], in experiment [6] and in experiment [8] was > 100 µM (inactive) each time.

Consider `CN/C(=N\c1ccc(OC)c2ccccc12)SC`, for which the GI50 in experiment [3] and in experiment [7] was > 10 µM (inactive) in each case.

For the compound `Cc1ncc([N+](=O)[O-])n1CCNC(=O)Cn1ccnc1[N+](=O)[O-]`, the GI50 in experiment [3] and in experiment [7] was > 100 µM (inactive) each time.

As to `O=C1C[C@H]2[C@@H](O1)[C@@H](O)CN1C(=O)c3ccccc3[C@H]21`, in experiment [7], the GI50 is > 100 µM (inactive).

As for `CCOC(=O)Nc1cc(NC(/C=N/NC(C)=O)C(=O)OCC)c(OC)cc1NC(C)=O` (stereo not drawn), the GI50 in experiment [3] and in experiment [7] was > 100 µM (inactive) throughout.

As for `O=C1N[C@@H](c2c[nH]c3ccc(Br)cc23)C(=O)N[C@H]1c1c[nH]c2ccc(Br)cc12`, the GI50 in experiment [3] is 11 µM (inactive); in experiment [7], 13.6 µM (inactive).

For `C=CCNS(=O)(=O)c1ncnc2[nH]cnc12`, the GI50 in experiment [3] and in experiment [7] was > 100 µM (inactive) each time.

With `COC1(OC)c2ccccc2C2(O)c3ccccc3C(=O)C12` (stereo not drawn), the GI50 in experiment [1] was 34.7 µM (inactive); in experiment [4], 20.7 µM (inactive); in experiment [5], 35.6 µM (inactive); in experiment [6], 25.2 µM (inactive); in experiment [8], 17.8 µM (inactive).

With `COc1ccc(-c2cc(=O)c3c(OC)c(OC)c(OC)c(OC)c3o2)cc1` [TANGERETIN], the GI50 in experiment [3] is 34.2 µM (inactive); in experiment [7], 58.9 µM (inactive).

As to `CC1(C)C2CCC1(C)C(N/C(Sc1ccccc1)=C(/C(Cl)=C(Cl)Cl)[N+](=O)[O-])C2` (stereo not drawn), the GI50 in experiment [7] is 12.4 µM (inactive).

For `O=C/C=C/c1ccco1`, the GI50 in experiment [3] and in experiment [7] was > 100 µM (inactive) throughout.

Take `Cc1ccc(S(=O)(=O)N2CCCSCCSCCCSCC2)cc1`: the GI50 in experiment [7] is > 100 µM (inactive).

In the case of `CCN(C(C)=N)c1ccccc1`, the GI50 was 95.5 µM (inactive) in experiment [1]; > 100 µM (inactive) in experiment [2]; 75.9 µM (inactive) in experiment [4]; 36.5 µM (inactive) in experiment [5]; > 100 µM (inactive) in experiment [8].

As for `O=C1c2ccccc2C(=O)c2c(OCC3CO3)ccc(OCC3CO3)c21` (stereo not drawn), the GI50 in experiment [3] is 16.2 µM (inactive); in experiment [7], 6.28 µM (inactive).

With `CC(CN(C)C)C(O)(c1ccccc1)c1ccccc1` (stereo not drawn), the GI50 in experiment [3] and in experiment [7] was > 100 µM (inactive) in each case.

In the case of `CC(=O)NNc1nc(C)c(C(=O)NNC(=O)C(=O)Nc2ccc(Cl)c([N+](=O)[O-])c2)s1`, the GI50 was 67.8 µM (inactive) in experiment [1], 27.2 µM (inactive) in experiment [4], 46.9 µM (inactive) in experiment [5] and 42.6 µM (inactive) in experiment [8].

With `CC1=NN2C(c3ccc(C)cc3)=CSC2=NC(C)(C)C1`, the GI50 in experiment [1] is > 100 µM (inactive); in experiment [2], > 100 µM (inactive); in experiment [4], > 100 µM (inactive); in experiment [5] it was 71 µM (inactive); in experiment [8], 54 µM (inactive).

As for `COC(=O)c1ccc(C)cc1CC1Cc2cc(C)ccc2C1=O` (stereo not drawn), the figures for the GI50 in experiment [3] and in experiment [7] were > 100 µM (inactive) and 94.2 µM (inactive), respectively.

For the compound `NC(=O)c1ccc(NCC2=CC(=O)C=CC2=O)cc1`, the GI50 in experiment [3] was 30.3 µM (inactive); in experiment [7], 15.5 µM (inactive).

As for `CCCCCCCCCCCCC/C=C1\C[C@H](O)COC1=O`, the GI50 in experiment [1] is 18.4 µM (inactive); in experiment [2], 17 µM (inactive); in experiment [4] it was 16.3 µM (inactive); in experiment [6], 14.4 µM (inactive); in experiment [8], 16.3 µM (inactive).

Take `CC1(C)CCC[C@@]2(C)C1C(=O)[C@@H]1O[C@]1(C)[C@@H]2CO` (stereo partly drawn): the GI50 in experiment [3] was 34.3 µM (inactive); in experiment [7], 16.9 µM (inactive).

Consider `CCCCCCCC/C=C\CCCCCCC/C=C1\C[C@](/C=C/C(=O)OC)(CO)OC1=O`, for which the GI50 in experiment [3] was 1.25 µM (inactive); in experiment [7], 2.33 µM (inactive).

Regarding `C=CCn1c(-c2ccc([N+](=O)[O-])cc2)csc1=N`, the GI50 in experiment [3] is > 100 µM (inactive); in experiment [7], 92.5 µM (inactive).

On to `Cc1cc(=O)oc2cc(O)c(CN(C)CC(=O)O)cc12`, for which the GI50 in experiment [3] and in experiment [7] was > 100 µM (inactive) throughout.

As to `COC(=O)C1=C(C(=O)OC)C2=S(SC3=C2CCCC3)S1` (stereo not drawn), the GI50 is 26.5 µM (inactive) in experiment [1], 24 µM (inactive) in experiment [2], 5.05 µM (inactive) in experiment [4] and 13.1 µM (inactive) in experiment [6].

With `Cc1ccc(S[C@@H](C)[C@@](O)(CF)CN(Cc2ccccc2)C(=O)C(F)(F)F)cc1`, the GI50 in experiment [3] is 18.3 µM (inactive); in experiment [7] it was 19.6 µM (inactive).

As to `COC(=O)C1N=CSCC1(C)O` (stereo not drawn), the GI50 in experiment [1], in experiment [2], in experiment [5] and in experiment [8] was > 100 µM (inactive) throughout.

Regarding `CC1=CCC[C@@]2(C)C(CC[C@@H]2C(C)/C=C/C(C)C)c2ccc(cc2C(=O)O)C[C@@H](O)CC1` (stereo partly drawn), the GI50 was 12.7 µM (inactive) in experiment [1]; 3.67 µM (inactive) in experiment [2]; 11.6 µM (inactive) in experiment [4]; 18.5 µM (inactive) in experiment [5]; 14.4 µM (inactive) in experiment [6].

As to `Cc1nc(-[n+]2nc(-c3ccncc3)nn2-c2ccccc2)sc1C`, the GI50 was 44.4 µM (inactive) in experiment [3] and 17.1 µM (inactive) in experiment [7].

Take `COC(=O)c1nsc(OC)c1Cl`: the GI50 in experiment [3] and in experiment [7] was > 100 µM (inactive) throughout.

As for `CCC1(CC)SCc2nc3ccccc3n21`, in experiment [3], the GI50 is 31.1 µM (inactive).

Regarding `COC(=O)NC(Cc1ccccc1)NC(=O)OC(C)(C)C` (stereo not drawn), the GI50 in experiment [3] and in experiment [7] was > 100 µM (inactive) in each case.

Take `CCc1cccc(C(C)C)c1NC1=C([n+]2ccc(C)cc2)C(=O)c2ccccc2C1=O.[O-][Cl+3]([O-])([O-])[O-]`: the GI50 in experiment [3] is 12.8 µM (inactive).

As for `Cc1ccc(S(=O)(=O)N/N=C(\C(=O)Nc2cccc([N+](=O)[O-])c2)c2nc3ccc([N+](=O)[O-])cc3nc2O)cc1`, the GI50 in experiment [1] is 43.7 µM (inactive); in experiment [2], > 100 µM (inactive); in experiment [4] it was 18.6 µM (inactive); in experiment [5], 10.2 µM (inactive).

On to `C=CC(C)(C)n1cc(C2=C(O)C(=O)C(c3c(CC=C(C)C)[nH]c4ccccc34)=C(O)C2=O)c2ccccc21`, for which the GI50 in experiment [3] is 1.43 µM (inactive); in experiment [7] it was 0.571 µM (active).

For the compound `C=C1C(=O)OC2/C=C(\C)C(=O)CC3OC(C)(C)OC3(C)CC(OC(=O)/C(C)=C/C)C12` (stereo not drawn), the values for the GI50 in experiment [3] and in experiment [7] were 28.9 µM (inactive) and 10.4 µM (inactive), respectively.
